# Assay results: paper PMC11206987, “Investigation of the Efficacy of Benzylidene-3-methyl-2-thioxothiazolidin-4-one Analogs with Antioxidant Activities on the Inhibition of Mushroom and Mammal Tyrosinases” (Molecules, 2024)
# Like-named read-outs stand apart in the source and are kept apart here.
# Columns and labels:
# mushroom tyrosinase [1] = experiment: Mushroom tyrosinase inhibition assay (dopachrome, 475 nm); format: biochemical; details: for IC50: mushroom tyrosinase
# Procedure: The ability of the BMTTZD analogs to inhibit mushroom tyrosinase was evaluated in the presence of L-dopa and L-tyrosine as previously described.
# mushroom tyrosinase [2] = biological target: mushroom tyrosinase (Agaricus bisporus, UniProt C7FF04); experiment: Kinetic study of mushroom tyrosinase inhibition (Lineweaver–Burk and Dixon plots); format: biochemical; details: for type of tyrosinase inhibition (Lineweaver–Burk plots): substrate L-dopa 0.5–16 mM
# Procedure: The initial rate of dopachrome generation was examined at various BMTTZD analog concentrations (0, 1.5, 3, and 6 µM for analog 1; 0, 2, 4, and 8 µM for analogs 2 and 5; and 0, 0.05, 0.1, and 0.2 µM for 3) with 0.5, 1, 2, 4, 8, or 16 mM L-dopa as substrates using mushroom tyrosinase. Plotting the reciprocal of the dopachrome formation rate against the inverse of the L-dopa concentration produced Lineweaver–Burk plots (Figure 2). Each Lineweaver–Burk plot created four straight lines with different slopes. For analogs 1 and 3, the four straight lines met at a point on the y-axis, whereas for analogs 2 and 5, the four straight lines converged at a point in the second quadrant.
# The Dixon plots produced lines that met in the second quadrant. The x-coordinate of the convergence position represents the inhibition constant (Ki) of the ligand.
# Lineweaver–Burk (L-B) plots were acquired for the kinetic analysis of analogs against mushroom tyrosinase as previously described. In brief, 10 µL of a solution of DMSO and BMTTZD analogs 1–3 or 5 (final concentrations: 0, 1.5, 3, and 6 µM for analog 1; 0, 2, 4, and 8 µM for analogs 2 and 5; and 0, 0.05, 0.1, and 0.2 µM for analog 3) in each well of a 96-well plate was mixed with 20 µL of aqueous mushroom tyrosinase solution (200 units/mL) and 170 µL of an aqueous substrate mixture (various concentrations of L-dopa (final concentrations: 16, 8, 4, 2, 1 and 0.5 mM) and 17.2 mM sodium phosphate buffer (pH 6.5)). During incubation (15 min at 37 °C), the increase in the well absorbance (ΔOD475/min) was calculated at 1 min intervals utilizing a VersaMax® reader.
# B16F10 cells [3] = experiment: Cell cytotoxicity test (EZ-Cytox); format: cell-based, murine; details: 2.5–20 µM, 48 and 72 h
# Procedure: Because analogs 1–3 and 5 exerted potent mushroom tyrosinase inhibitory activities, their effects on anti-melanogenic and cellular tyrosinase activities were evaluated in B16F10 murine cells. Prior to examining their cellular activity, their cell viabilities were investigated. Cell viability was evaluated at 48 and 72 h after treatment with five different concentrations of analogs.
# The effect on B16F10 cytotoxicity was assessed following a previously described method. Cells (1 × 10^4 cells/well of a 96-well plate) were cultivated for 24 h with 5% CO2 at 37 °C. The cells were exposed to the BMTTZD analogs (test concentrations: 20, 10, 5, 2.5, and 0 µM) and cultivated with 5% CO2 at 37 °C for 72 h. An EZ-Cytox solution (10 µL; EZ-500, DoGenBio, Seoul, Republic of Korea) was exposed to each well, and the plate was cultivated for 2 h. Cell viability was calculated from the well absorbance measured at 450 nm utilizing a reader (VersaMax®).
# [4] = biological target: T1, B16F10 cellular tyrosinase (Mus musculus, UniProt P11344); experiment: Cellular tyrosinase activity assay in B16F10 cells stimulated with IBMX plus α-MSH; format: cell-based, murine; details: 72 h; for effect on stimulator-induced cellular tyrosinase activity: 5, 10, 20 µM, IBMX plus α-MSH
# T1 construct: host or cells: B16F10 cells
# T1 sequence (P11344 19-533): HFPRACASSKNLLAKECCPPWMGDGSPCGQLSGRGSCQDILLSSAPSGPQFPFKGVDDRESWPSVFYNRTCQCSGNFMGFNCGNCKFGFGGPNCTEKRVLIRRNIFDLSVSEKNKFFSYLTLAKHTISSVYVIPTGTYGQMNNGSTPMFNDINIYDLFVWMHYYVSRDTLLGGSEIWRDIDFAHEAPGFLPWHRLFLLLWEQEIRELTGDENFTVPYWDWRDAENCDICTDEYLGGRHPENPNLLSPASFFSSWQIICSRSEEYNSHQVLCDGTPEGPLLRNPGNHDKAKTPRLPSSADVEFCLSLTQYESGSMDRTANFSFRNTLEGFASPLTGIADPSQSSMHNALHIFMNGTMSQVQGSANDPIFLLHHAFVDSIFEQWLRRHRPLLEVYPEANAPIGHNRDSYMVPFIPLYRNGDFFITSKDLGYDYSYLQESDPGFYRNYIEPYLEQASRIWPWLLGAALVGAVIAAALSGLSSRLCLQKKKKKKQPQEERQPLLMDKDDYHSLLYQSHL
# Procedure: Analogs 1, 3, and 5 were exposed to B16F10 cells at various concentrations (20, 10, 5, and 0 µM) before exposure to IBMX (200 µM; 3-isobutyl-1-methylxanthine) and α-MSH (1 µM; α-melanocyte-stimulating hormone). After incubation (72 h), B16F10 cellular tyrosinase activity was determined. […] It was examined whether the cellular tyrosinase inhibition of the BMTTZD analogs could influence B16F10 cellular melanin contents.
# Effects on B16F10 tyrosinase inhibition were evaluated as previously described. A 6-well plate containing 1 × 10^5 B16F10 cells/well was cultivated for 23 h under conditions identical to those of the cell culture. […] The cells were cultivated for 72 h. After washing 2 times with PBS, the cells were lysed in a 100 µL lysis buffer, including phenylmethylsulfonyl fluoride (5 µL; 1 mM), Triton X-100 (5 µL; 1%), and phosphate buffer (90 µL; 50 mM (pH 6.5)). After 30 min incubation at −80 °C, the cell lysates were centrifuged at 4 °C for 30 min. The supernatants (80 µL) of the lysates were moved to each well of a microplate and mixed with 20 µL 10 mM L-dopa.
# B16F10 cells [5] = experiment: Melanin content assay in B16F10 cells; format: cell-based, murine; details: 72 h; for effect on intracellular melanin contents enhanced by IBMX plus α-MSH: 5, 10, 20 µM
# Procedure: We examined whether the ability of analogs 1, 3, and 5 to inhibit intracellular tyrosinase activity could affect intracellular melanin levels. B16F10 cells were utilized as mammalian cells. IBMX and α-MSH were used at 200 µM and 1 µM, respectively, to increase melanin biosynthesis. […] For the intracellular melanin content determination, the absorbance at 405 nm was evaluated after 72 h of incubation.
# The effect of BMTTZD analogs on melanin biosynthesis was investigated following a previously described method. A 6-well microplate containing 1 × 10^5 B16F10 cells/well was cultivated for 23 h under conditions identical to those of the cell culture. […] After exposure to IBMX and α-MSH, B16F10 cells were cultivated for 72 h at 37 °C. The cells were rinsed 2 times with PBS, treated with 1N-NaOH aqueous solution (100 µL), and cultivated at 60 °C for 1 h. The lysates were moved to a microplate. At 405 nm, the well absorbance was measured utilizing a VersaMax® reader. Each experiment was carried out three times independently.
# [6] = biological target: T1, B16F10 cellular tyrosinase; experiment: In situ cellular tyrosinase activity assay using L-dopa staining; format: cell-based, murine; details: 72 h; for effect on stimulator-raised in situ intracellular tyrosinase activity (L-dopa staining): analogs 5, 10, 20 µM, kojic acid 20 µM
# Procedure: Because tyrosinase plays a critical role in melanogenesis, in situ intracellular tyrosinase activity was measured. The in situ intracellular tyrosinase activity was evaluated in B16F10 cells following a previously reported procedure. Stimulators (α-MSH plus IBMX) were exposed to cells to raise tyrosinase activity levels, and analogs 1, 3, and 5 were treated at 20, 10, and 5 µM for 72 h. After fixation and permeabilization using paraformaldehyde and Triton X-100, the cells were stained with L-dopa.
# A 24-well plate containing 1 × 10^3 B16F10 cells/well was cultivated for 24 h under conditions identical to those of the cell culture. […] The cells were then cultivated under conditions identical to those of the cell culture for 72 h. Cultivated cells were fixed for 40 min with paraformaldehyde (4%), washed 2 times with PBS, and permeabilized with Triton X-100 (0.1%) for 2 min. After washing 2 times with PBS, the cells in the 24-well plate were stained with a 2 mM L-dopa aqueous solution (500 µL/well) for 2 h at 37 °C. Staining was photographed and analyzed utilizing a camera connected to a microscope (Motic, Hong Kong).
# [7] = DPPH radical scavenging activity assay; details: 500 µM
# Procedure: First, the ability of BMTTZD analogs 1–8 to scavenge DPPH radicals was examined using L-ascorbic acid (vitamin C; positive control). All samples were tested at 500 µM.
# The ability of the BMTTZD analogs to scavenge DPPH radicals was evaluated as previously reported. To each well of a 96-well plate containing analogs 1–8 (5 mM in […]; 20 µL) was added a DPPH solution (0.2 mM in methanol; 180 µL). The mixture was kept in a place without light for 30 min at 25°C to generate DPPH radicals. The well absorbance at 517 nm was measured utilizing a VersaMax® reader. The ability of the analogs to remove DPPH radicals was compared to that of vitamin C.
# [8] = substrate L-dopa, read-out: IC50 (Mean ± SEM, µM) L-Dopa
# [9] = substrate L-tyrosine, read-out: IC50 (Mean ± SEM, µM) L-Tyrosine
# [10] = analog at highest concentration tested (20 µM)
# Chain of mushroom tyrosinase (Agaricus bisporus, UniProt C7FF04) (C7FF04 1-392): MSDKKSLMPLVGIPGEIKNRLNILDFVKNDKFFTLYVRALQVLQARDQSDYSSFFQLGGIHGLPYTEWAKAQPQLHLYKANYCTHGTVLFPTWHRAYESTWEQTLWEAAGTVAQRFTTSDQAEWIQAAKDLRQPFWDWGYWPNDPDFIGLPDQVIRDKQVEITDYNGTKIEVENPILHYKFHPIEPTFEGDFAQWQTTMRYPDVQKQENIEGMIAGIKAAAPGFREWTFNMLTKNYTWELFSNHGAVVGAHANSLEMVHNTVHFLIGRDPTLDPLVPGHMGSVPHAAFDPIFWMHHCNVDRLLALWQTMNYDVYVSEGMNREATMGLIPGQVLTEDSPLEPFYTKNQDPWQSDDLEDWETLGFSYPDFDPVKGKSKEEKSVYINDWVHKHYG
smiles,measurement,setting,value
"COc1ccc(/C=C2\SC(=S)N(C)C2=O)cc1O [Analog 5, (Z)-5-(3-Hydroxy-4-methoxybenzylidene)-3-methyl-2-thioxothiazolidin-4-one]",IC50,mushroom tyrosinase [1]; [8],13.8 ± 2.64 µM
same,IC50,mushroom tyrosinase [1]; [9],3.6 ± 0.52 µM
same,type of tyrosinase inhibition (Lineweaver–Burk plots),mushroom tyrosinase [2],mixed-type inhibitors
same,cytotoxicity (cell viability),B16F10 cells [3],did not exhibit cytotoxicity at ≤20 µM
same,effect on stimulator-induced cellular tyrosinase activity,[4],concentration-dependently and significantly reduced
same,cellular tyrosinase inhibition compared with kojic acid (20 µM),[4]; [10],stronger inhibitory effects than kojic acid
same,intracellular melanin contents compared with kojic acid,B16F10 cells [5]; 20 µM,levels similar to those in treatment with kojic acid
same,effect on intracellular melanin contents enhanced by IBMX plus α-MSH,B16F10 cells [5],significantly reduced the melanin contents
same,effect on stimulator-raised in situ intracellular tyrosinase activity (L-dopa staining),[6],concentration-dependently reduced the stimulator-enhanced intracellular tyrosinase inhibition
"CN1C(=O)/C(=C/c2ccc(O)cc2)SC1=S [Analog 1, (Z)-5-(4-Hydroxybenzylidene)-3-methyl-2-thioxothiazolidin-4-one]",reduction in tyrosinase inhibition relative to analog 3,mushroom tyrosinase [1]; substrate L-dopa,17 fold
same,IC50,mushroom tyrosinase [1]; [8],17.6 ± 0.62 µM
same,"tyrosinase inhibition, times stronger than kojic acid",mushroom tyrosinase [1]; substrate L-tyrosine,five times more strongly than kojic acid
same,IC50,mushroom tyrosinase [1]; [9],3.82 ± 0.22 µM
same,type of tyrosinase inhibition (Lineweaver–Burk plots),mushroom tyrosinase [2],competitive inhibitors
same,Ki,"mushroom tyrosinase [2]; substrate L-dopa, read-out: inhibition constant (Ki) from Dixon plots",6.2 µM
same,cytotoxicity (cell viability),B16F10 cells [3],did not exhibit cytotoxicity at ≤20 µM
same,effect on stimulator-induced cellular tyrosinase activity,[4],concentration-dependently and significantly reduced
same,cellular tyrosinase inhibition compared with kojic acid (20 µM),[4]; analog at 10 µM,slightly more strongly than kojic acid
same,cellular tyrosinase inhibition compared with kojic acid (20 µM),[4]; [10],stronger inhibitory effects than kojic acid
same,intracellular melanin contents compared with kojic acid,B16F10 cells [5]; 20 µM,levels similar to those in treatment with kojic acid
same,effect on intracellular melanin contents enhanced by IBMX plus α-MSH,B16F10 cells [5],significantly reduced the melanin contents
same,in situ intracellular tyrosinase inhibition compared with kojic acid,[6]; 20 µM,weaker intracellular tyrosinase inhibition efficacy than kojic acid
same,effect on stimulator-raised in situ intracellular tyrosinase activity (L-dopa staining),[6],concentration-dependently reduced the stimulator-enhanced intracellular tyrosinase inhibition
"CN1C(=O)/C(=C/c2ccc(O)c(Br)c2)SC1=S [Analog 7, (Z)-5-(3-Bromo-4-hydroxybenzylidene)-3-methyl-2-thioxothiazolidin-4-one]",IC50,mushroom tyrosinase [1]; [8],> 200 µM
same,IC50,mushroom tyrosinase [1]; [9],33.2 ± 8.42 µM
"O=C1O[C@H]([C@@H](O)CO)C(O)=C1O [L-Ascorbic acid, reference compound]",DPPH radical scavenging activity,[7],97%
"COc1cc(/C=C2\SC(=S)N(C)C2=O)ccc1O [Analog 4, (Z)-5-(4-Hydroxy-3-methoxybenzylidene)-3-methyl-2-thioxothiazolidin-4-one]",IC50,mushroom tyrosinase [1]; [8],> 200 µM
same,IC50,mushroom tyrosinase [1]; [9],54.8 ± 16.1 µM
same,DPPH radical scavenging activity,[7],82%
"CN1C(=O)/C(=C/c2cc(Br)c(O)c(Br)c2)SC1=S [Analog 8, (Z)-5-(3,5-Dibromo-4-hydroxybenzylidene)-3-methyl-2-thioxothiazolidin-4-one]",IC50,mushroom tyrosinase [1]; [8],> 200 µM
same,IC50,mushroom tyrosinase [1]; [9],> 200 µM
"COc1cc(/C=C2\SC(=S)N(C)C2=O)cc(OC)c1O [Analog 6, (Z)-5-(4-Hydroxy-3,5-dimethoxybenzylidene)-3-methyl-2-thioxothiazolidin-4-one]",IC50,mushroom tyrosinase [1]; [8],> 200 µM
same,IC50,mushroom tyrosinase [1]; [9],57.4 ± 10.9 µM
"O=c1cc(CO)occ1O [Kojic acid, reference compound]",decrease of intracellular melanin contents,"B16F10 cells [5]; 20 µM, IBMX plus α-MSH (raised melanin 4.4-fold)",3.3 fold
